Measured values reported in the supplement of paper PMC10307832.

Experiments:
Experiment in all cases: relative viability (nuclei count vs DMSO), 5 days (fraction); higher = more cells survive
COR-L 105 = system: COR-L 105
Procedure, shortened: (§1)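 A single step with final 0.05% Triton X-100, 1% formaldehyde and 1 ug/ml Hoechst fixed the cells and stained nuclei 5 days after treatment. Lung cancer cell lines in 1536-well plates had been treated by pin tool the day after seeding with one drug alone or a fixed anchor-drug dose plus five library-drug doses (not always all listed) in √10 steps, and nuclei were counted on 4× images. Relative viability is the ratio of nuclei in treated wells to nuclei in vehicle wells, taken as the median of duplicate plates.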

COR-L23 = system: COR-L23
Procedure, shortened: as §1

EKVX = system: EKVX
Procedure, shortened: as §1

HARA = system: HARA
Procedure, shortened: as §1

HOP-62 = system: HOP-62
Procedure, shortened: as §1

NCI-H1355 = system: NCI-H1355
Procedure, shortened: as §1

NCI-H1395 = system: NCI-H1395
Procedure, shortened: as §1

NCI-H1734 = system: NCI-H1734
Procedure, shortened: as §1

NCI-H1755 = system: NCI-H1755
Procedure, shortened: as §1

NCI-H1793 = system: NCI-H1793
Procedure, shortened: as §1

NCI-H1993 = system: NCI-H1993
Procedure, shortened: as §1

NCI-H2009 = system: NCI-H2009
Procedure, shortened: as §1

NCI-H2170 = system: NCI-H2170
Procedure, shortened: as §1

NCI-H2228 = system: NCI-H2228
Procedure, shortened: as §1

NCI-H2342 = system: NCI-H2342
Procedure, shortened: as §1

NCI-H2347 = system: NCI-H2347
Procedure, shortened: as §1

NCI-H322M = system: NCI-H322M
Procedure, shortened: as §1

NCI-H358 = system: NCI-H358
Procedure, shortened: as §1

NCI-H647 = system: NCI-H647
Procedure, shortened: as §1

NCI-H838 = system: NCI-H838
Procedure, shortened: as §1

PC-14 = system: PC-14
Procedure, shortened: as §1

SK-MES-1 = system: SK-MES-1
Procedure, shortened: as §1

UMC-11 = system: UMC-11
Procedure, shortened: as §1

Work on `Clc1ccc(Nc2nnc(Cc3ccncc3)c3ccccc23)cc1` [Vatalanib] + COc1cc2c(Oc3ccc(NC(=O)C4(C(=O)Nc5ccc(F)cc5)CC4)cc3F)ccnc2cc1OCCCN1CCOCC1 [Foretinib] (partner 0.25 µM) yielded a relative viability (COR-L 105; first compound 0.04 µM) of 0.885, a relative viability (COR-L 105; first compound 0.1265 µM) of 1.23 and a relative viability (COR-L 105; first compound 0.4 µM) of 1.24. It also gave a relative viability (COR-L 105; first compound 1.265 µM) of 0.785, a relative viability (COR-L 105; first compound 4 µM) of 1.12 and a relative viability (COR-L23; first compound 0.04 µM) of 1.08. It also gave a relative viability (COR-L23; first compound 0.1265 µM) of 0.827, a relative viability (COR-L23; first compound 0.4 µM) of 1.15 and a relative viability (COR-L23; first compound 1.265 µM) of 1.04. It also gave a relative viability (COR-L23; first compound 4 µM) of 0.92, a relative viability (EKVX; first compound 0.04 µM) of 0.836 and a relative viability (EKVX; first compound 0.1265 µM) of 0.838. The relative viability (EKVX; first compound 0.4 µM) was 0.551, the relative viability (EKVX; first compound 4 µM) was 0.727 and the relative viability (HARA; first compound 0.04 µM) was 0.853. The relative viability (HARA; first compound 0.1265 µM) was 0.757, the relative viability (HARA; first compound 0.4 µM) was 0.807 and the relative viability (HARA; first compound 1.265 µM) was 0.92. The relative viability (HARA; first compound 4 µM) was 0.852, the relative viability (HOP-62; first compound 0.04 µM) was 1.16 and the relative viability (HOP-62; first compound 0.1265 µM) was 1.07. The relative viability (HOP-62; first compound 0.4 µM) was 1.13, the relative viability (HOP-62; first compound 1.265 µM) was 1.01 and the relative viability (HOP-62; first compound 4 µM) was 1.12. For the same molecule, the relative viability (NCI-H1355; first compound 0.04 µM) was 1.01, the relative viability (NCI-H1355; first compound 0.1265 µM) was 1.01 and the relative viability (NCI-H1355; first compound 0.4 µM) was 1.02. The relative viability (NCI-H1355; first compound 1.265 µM) was 0.847, the relative viability (NCI-H1355; first compound 4 µM) was 0.971 and the relative viability (NCI-H1395; first compound 0.04 µM) was 0.994. For the same molecule, the relative viability (NCI-H1395; first compound 0.1265 µM) was 1.1, the relative viability (NCI-H1395; first compound 0.4 µM) was 1.08 and the relative viability (NCI-H1395; first compound 1.265 µM) was 0.938. It also gave a relative viability (NCI-H1395; first compound 4 µM) of 1.02, a relative viability (NCI-H1734; first compound 0.04 µM) of 0.878 and a relative viability (NCI-H1734; first compound 0.1265 µM) of 0.833. It also gave a relative viability (NCI-H1734; first compound 0.4 µM) of 0.912, a relative viability (NCI-H1734; first compound 1.265 µM) of 0.736 and a relative viability (NCI-H1734; first compound 4 µM) of 0.782. It also gave a relative viability (NCI-H1755; first compound 0.04 µM) of 0.88, a relative viability (NCI-H1755; first compound 0.1265 µM) of 0.964 and a relative viability (NCI-H1755; first compound 0.4 µM) of 0.954. For the same molecule, the relative viability (NCI-H1755; first compound 1.265 µM) was 0.905, the relative viability (NCI-H1755; first compound 4 µM) was 0.846 and the relative viability (NCI-H1793; first compound 0.04 µM) was 0.769. For the same molecule, the relative viability (NCI-H1793; first compound 0.1265 µM) was 0.787, the relative viability (NCI-H1793; first compound 0.4 µM) was 0.686 and the relative viability (NCI-H1793; first compound 1.265 µM) was 0.663. The relative viability (NCI-H1793; first compound 4 µM) was 0.608, the relative viability (NCI-H1993; first compound 0.04 µM) was 0.739 and the relative viability (NCI-H1993; first compound 0.1265 µM) was 0.745. For the same molecule, the relative viability (NCI-H1993; first compound 0.4 µM) was 0.806, the relative viability (NCI-H1993; first compound 1.265 µM) was 0.739 and the relative viability (NCI-H1993; first compound 4 µM) was 0.75. For the same molecule, the relative viability (NCI-H2009; first compound 0.04 µM) was 1.22, the relative viability (NCI-H2009; first compound 0.1265 µM) was 1.14 and the relative viability (NCI-H2009; first compound 0.4 µM) was 1.24. It also gave a relative viability (NCI-H2009; first compound 1.265 µM) of 1.2, a relative viability (NCI-H2009; first compound 4 µM) of 1.26 and a relative viability (NCI-H2170; first compound 0.04 µM) of 1.03. The relative viability (NCI-H2170; first compound 0.1265 µM) was 1.09, the relative viability (NCI-H2170; first compound 0.4 µM) was 1.04 and the relative viability (NCI-H2170; first compound 1.265 µM) was 0.978. For the same molecule, the relative viability (NCI-H2170; first compound 4 µM) was 1.02, the relative viability (NCI-H2228; first compound 0.04 µM) was 0.941 and the relative viability (NCI-H2228; first compound 0.1265 µM) was 0.928. The relative viability (NCI-H2228; first compound 0.4 µM) was 0.968, the relative viability (NCI-H2228; first compound 1.265 µM) was 0.946 and the relative viability (NCI-H2228; first compound 4 µM) was 0.778. The relative viability (NCI-H2342; first compound 0.04 µM) was 1.08, the relative viability (NCI-H2342; first compound 0.1265 µM) was 1.03 and the relative viability (NCI-H2342; first compound 0.4 µM) was 1.08. The relative viability (NCI-H2342; first compound 1.265 µM) was 1.16, the relative viability (NCI-H2342; first compound 4 µM) was 1.05 and the relative viability (NCI-H2347; first compound 0.1265 µM) was 0.676. For the same molecule, the relative viability (NCI-H2347; first compound 0.4 µM) was 0.656, the relative viability (NCI-H2347; first compound 1.265 µM) was 1.05 and the relative viability (NCI-H2347; first compound 4 µM) was 0.785. It also gave a relative viability (NCI-H322M; first compound 0.04 µM) of 1, a relative viability (NCI-H322M; first compound 0.1265 µM) of 0.974 and a relative viability (NCI-H322M; first compound 0.4 µM) of 1.03. For the same molecule, the relative viability (NCI-H322M; first compound 1.265 µM) was 0.878, the relative viability (NCI-H322M; first compound 4 µM) was 0.896 and the relative viability (NCI-H358; first compound 0.04 µM) was 1.15. For the same molecule, the relative viability (NCI-H358; first compound 0.1265 µM) was 0.568, the relative viability (NCI-H358; first compound 0.4 µM) was 0.533 and the relative viability (NCI-H358; first compound 1.265 µM) was 0.718. It also gave a relative viability (NCI-H358; first compound 4 µM) of 0.621, a relative viability (NCI-H647; first compound 0.04 µM) of 1.12 and a relative viability (NCI-H647; first compound 0.1265 µM) of 1.2. The relative viability (NCI-H647; first compound 0.4 µM) was 1.28, the relative viability (NCI-H647; first compound 1.265 µM) was 1.18 and the relative viability (NCI-H647; first compound 4 µM) was 1.1. It also gave a relative viability (NCI-H838; first compound 0.04 µM) of 1.11, a relative viability (NCI-H838; first compound 0.1265 µM) of 1.03 and a relative viability (NCI-H838; first compound 0.4 µM) of 1.13. It also gave a relative viability (NCI-H838; first compound 1.265 µM) of 1.04, a relative viability (NCI-H838; first compound 4 µM) of 1.01 and a relative viability (PC-14; first compound 0.04 µM) of 0.981. It also gave a relative viability (PC-14; first compound 0.1265 µM) of 0.855, a relative viability (PC-14; first compound 0.4 µM) of 0.85 and a relative viability (PC-14; first compound 1.265 µM) of 0.895. It also gave a relative viability (PC-14; first compound 4 µM) of 0.932, a relative viability (SK-MES-1; first compound 0.04 µM) of 1.02 and a relative viability (SK-MES-1; first compound 0.1265 µM) of 0.82. The relative viability (SK-MES-1; first compound 0.4 µM) was 0.943, the relative viability (SK-MES-1; first compound 1.265 µM) was 0.881 and the relative viability (SK-MES-1; first compound 4 µM) was 0.692. For the same molecule, the relative viability (UMC-11; first compound 0.04 µM) was 1.12, the relative viability (UMC-11; first compound 0.1265 µM) was 0.94 and the relative viability (UMC-11; first compound 0.4 µM) was 0.916. It also gave a relative viability (UMC-11; first compound 1.265 µM) of 0.94 and a relative viability (UMC-11; first compound 4 µM) of 1.02.
